Laboratory results: paper PMC12540682, “Purification and biochemical characterization of L-glutaminase from Aspergillus oryzae with potential biotechnological applications in synthesis of L-theanine and as antitumor agent” (Scientific Reports, 2025)
pIC50: −log10 of the molar value. Values belong to the compound of their own block, whether it stands above or below them.

How the values were obtained:
[1] = test system: T1, L-glutaminase (Glut) from Aspergillus oryzae EG-RE9; assay: ammonia release (Nessler), Lineweaver-Burk; assay type: biochemical; details: pH 7.0, 35 °C, 1 h; L-glutamine 0.25-12 mM
T1 construct: gene gtaA; native extracellular enzyme purified from culture filtrate (ammonium sulfate, DEAE-cellulose, Sephadex G-200); 65 kDa by SDS-PAGE

[2] = molecular target: T1, L-glutaminase (Glut) from Aspergillus oryzae EG-RE9; assay: residual activity after preincubation, ammonia release (Nessler); assay type: biochemical; details: 0.1 M phosphate pH 7.0, 20 min preincubation at 37 °C, covalent
Experimental: residual activity after preincubation, ammonia release (Nessler) on L-glutaminase (Glut) from Aspergillus oryzae EG-RE9 | The IC50 of BD, NBS, DEPC, and NEM for A. oryzae L-glutaminase were […]

Compound: O=C1CCC(=O)N1Br [N-bromosuccinimide]
pIC50 ([2]; group-specific modifier of Trp): 2.24

Compound: CCN1C(=O)C=CC1=O [N-ethylmaleimide]
pIC50 ([2]; group-specific modifier of Cys): 2.32

Other lines, results leading:

Km [1]: 1400 µM
Compound: NC(=O)CC[C@H](N)C(=O)O [L-glutamine]

pIC50 ([2]; group-specific modifier of Arg): 2.18
Compound: CC(=O)C(C)=O [butanedione]

pIC50 ([2]; group-specific modifier of His): 2.15
Compound: CCOC(=O)OC(=O)OCC [diethyl pyrocarbonate]
